How the values were obtained:
[1] = target: T1, human recombinant PTP1B (1-302) (Homo sapiens, UniProt P18031); experiment: PTP1B activity / inhibition assay (p-NPP hydrolysis); type: biochemical
T1 construct: The human recombinant PTP1B (1-302 aa) and LMW-PTP (full-length) were expressed as fusion proteins; polyhistidine (N); made in house; host or cells: E. coli BL21(DE3) pLysS
T1 sequence (P18031 1-302): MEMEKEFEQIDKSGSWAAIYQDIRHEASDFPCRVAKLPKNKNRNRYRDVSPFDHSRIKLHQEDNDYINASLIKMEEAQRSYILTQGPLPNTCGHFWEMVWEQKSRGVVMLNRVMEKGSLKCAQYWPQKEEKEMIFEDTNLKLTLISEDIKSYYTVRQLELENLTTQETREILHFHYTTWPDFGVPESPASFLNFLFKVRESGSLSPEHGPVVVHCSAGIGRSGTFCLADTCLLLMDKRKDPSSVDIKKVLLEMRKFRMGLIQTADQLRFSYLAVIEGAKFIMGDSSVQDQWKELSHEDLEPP
Procedure: PTP1B activity was determined as previously described. Briefly, each assay was started by adding an aliquot of human recombinant PTP1B (1-302) in the assay buffer (0.075 M β,β-dimethylglutarate pH 7.0, containing 1 mM EDTA, 0.1 mM DTT, and p-nitrophenylphosphate (p-NPP)). All reactions were performed at 37 °C in a final volume of 1 mL. After the incubation time, the reactions were stopped by adding 2 mL of 0.1 M KOH to the samples. The concentration of the released p-nitrophenol was determined by measuring the absorbance at 400 nm in a 1 cm pathlength cuvette. One unit of enzyme activity is the amount that catalyses the conversion of 1 μmol of substrate/min in the above assay conditions.
(§1) PE was dissolved in DMSO at a final concentration of 10 mM and added to the assay mixture containing 10 mU of purified AR (84 nM on the basis of a 34 KDa molecular weight) or 8 mU purified PTP1B (52 nM on the basis of a 36 KDa molecular weight). The reaction was started by the addition of the substrate. The DMSO concentration in the assays for AR determination was kept constant at 0.7 % (v/v) in order to avoid effects on AR activity. The inhibitory effect of PE was determined by measuring the reaction rates in the presence of a fixed substrate concentration (2.5 mM p-NPP and 0.8 mM L-idose for PTP1B and AR, respectively) and increasing inhibitor concentrations (at least 14-16 different concentrations). The IC50 (the inhibitor concentration able to decrease the enzymatic activity up to 50%) values were determined by nonlinear regression analysis using Prism GraphPad 6.0 (GraphPad Software, San Diego, CA, USA), fitting experimental data to the following equation: Vi/V0 = Max − Min/1 + x/IC50^slope + Min where Vi/V0 represents the relative activity calculated in presence of each inhibitor concentration; “Max” and “Min” represent the maximum and minimum value of the activity, respectively; “x” is the concentration of the inhibitor; and “slope” represents the slope of the curve in the transition zone.
(§2) In order to define the mechanism of action of PE, reaction rates were measured in assay mixtures containing different L-idose concentrations (between 0.8 and 6 mM) in the case of AR, and different p-NPP concentrations (between 0.5 and 25 mM) in the case of PTP1B, in the absence and in the presence of different PE concentrations. Data were analysed by Lineweaver–Burk plots. The apparent dissociation constants Ki’ (for the ESI complex) and Ki (for the EI complex) were determined from secondary plots of 1/^appVmax and ^appKM/^appVmax as a function of the inhibitor concentration, respectively.
Figure S3. Determination of IC50 value for PE. […] The amount of p-NP released was determined using a spectrophotometer, measuring the absorbance of samples at 400 nm, using a 1cm path length cuvette. […]

[2] = target: T2, human recombinant AR (Homo sapiens, UniProt P15121); experiment: AR activity / inhibition assay (NADPH oxidation, L-idose as substrate); type: biochemical
T2 construct: made in house; host or cells: E. coli BL21(DE3) pLysS
Procedure: AR activity was determined at 37 °C, as previously described, evaluating the decrease in absorbance at 340 nm linked to NADPH oxidation using a Biochrom Libra S60 spectrophotometer. The standard assay mixture contained 0.25 M sodium phosphate buffer pH 6.8, 0.18 mM NADPH, 2.4 M ammonium sulphate, 0.5 mM EDTA, and 4.7 mM D,L-glyceraldehyde. One unit of enzyme activity is the amount that catalyses the conversion of 1 μmol of substrate/min in the above assay conditions. For AR inhibition studies, L-idose (at the indicated concentrations) was used as substrate in the conditions described above.
as §1, §2

[3] = target: T2, human recombinant AR; experiment: Reversibility of AR inhibition by dialysis; type: biochemical
Procedure: (§3) The mixture was then extensively dialysed on Amicon ultrafiltration membrane (cut-off 3 KDa) against 10 mM sodium phosphate buffer, pH 7.0. After dialysis, the enzyme activity was again measured using 0.8 mM L-idose as substrate and compared to that of a mixture treated in the same conditions but in the absence of inhibitor. In order to evaluate the reversibility of the inhibitory action on PTP1B, 8 mU of PTP1B was incubated in the presence of a saturating concentration of PE (3 µM) and then incubated at 37 °C for 1 h. After this time, an aliquot of solution was withdrawn and extensively diluted in the assay buffer containing 2.5 mM of p-NPP. Residual activity of PTP1B was determined by calculating the amount of pNP released by measuring the absorbance of solution at 400 nm.

[4] = target: T1, human recombinant PTP1B (1-302); experiment: Reversibility of PTP1B inhibition, dilution assay; type: biochemical
Procedure: as §3
Figure S3. Determination of IC50 value for PE. An aliquot of PTP1B (8 mU) was incubated in the presence of increasing PE concentration in the assay buffer containing 2.5 mM pNPP. After 30 minutes, the reactions were stopped by adding 2 mL of 0.1 M KOH solution. The amount of p-NP released was determined using a spectrophotometer, measuring the absorbance of samples at 400 nm, using a 1cm path length cuvette. All tests were carried out in triplicate. Data obtained were normalized respect to control test and fitted using an opportune equation (see Material and method […]
Figure S4. Dilution assay. […]

[5] = system: HepG2 cells; experiment: Analysis of the insulin signalling pathway (Western blot of IR and Akt phosphorylation); type: cell-based; details: HepG2, PE 25 µM combined with insulin 10 nM, 30 minutes
Procedure: To evaluate whether PE is able to improve the insulin signalling pathway in vitro, we analysed the effect of the compound on HepG2 cell line. For this purpose, we treated HepG2 cells with PE (25 µM final concentration) for 30 minutes in the presence or absence of insulin (10 nM). After treatment, cells were lysed and cellular extracts were analysed to evaluate the phosphorylation status of insulin receptor (IR) and Akt, a kinase downstream IR (Figure 7).
Figure 7 Effect of PE on the insulin signalling pathway. Panel A: Western blot image; Panel B: quantitation of Western blot carried out using Kodak MI software. Data shown were normalized with respect to the control sample. All tests were carried out in triplicate. […]
In order to evaluate the effect of PE on the insulin signalling pathway, HepG2 cells were seeded in 35-mm culture dishes and, after 24 hours, were incubated for 30 minutes with starvation medium (DMEM supplemented with 2 mM glutamine, 100 U/mL penicillin, and 100 μg/mL streptomycin) containing 25 μM of PE and/or 10 nM insulin (Humalog, lispro insulin). […] Cellular extracts were boiled for 5 minutes, and then an aliquot (20 µg of protein) was analysed by SDS-PAGE and Western blot to evaluate both total and phosphorylated expression levels of Akt and IR. β-actin was used as a reference protein to normalise protein loading.

`CCCCCCCCCCCCCCC(OP(=O)(O)O)C(O)CCC(O)C(O)CCC(O)CCCCCCC(=O)NCC(=O)O` (centres unmarked) [PE, phosphoeleganin] was tested, and the IC50 ([1]; 2.5 mM p-NPP, pH 7.0, 37 °C, 8 mU PTP1B) was 1.3 ± 0.04 µM, the “Type of inhibition of PTP1B” value ([1]; Lineweaver–Burk analysis) was “pure non-competitive inhibitor” and the “K'i (ESI complex) for PTP1B” value ([1]; secondary plot of 1/appVmax vs PE concentration, p-NPP 0.5-25 mM) was 0.7 ± 0.1 µM. For the same compound, the Ki ([1]; secondary plot of appKM/appVmax vs PE concentration, p-NPP 0.5-25 mM, read-out: Ki (EI complex) for PTP1B) was 0.7 ± 0.1 µM, the IC50 ([2]; 0.8 mM L-idose, pH 6.8, 37 °C, 10 mU AR) was 28.7 ± 1.1 µM and the “Type of inhibition of AR” value ([2]; Lineweaver–Burk analysis) was “mixed inhibitor”. For the same compound, the “K'i (ESI complex) for AR” value ([2]; secondary plot of 1/appVmax vs PE concentration, L-idose 0.8-6 mM) was 36 ± 1 µM, the Ki ([2]; secondary plot of appKM/appVmax vs PE concentration, L-idose 0.8-6 mM, read-out: Ki (EI complex) for AR) was 47 ± 1 µM and the “Reversibility of AR inhibition” value [3] was “reversible inhibitor”. For the same compound, the “AR enzyme activity recovered after removal of inhibitor by extensive dialysis” value ([3]; 10 mU AR incubated 90 min at 0 °C with PE 3 mM, then dialysed, 0.8 mM L-idose) was 100%, the “Reversibility of PTP1B inhibition” value [4] was “reversible inhibitor” and the “PTP1B activity recovered after dilution” value ([4]; incubation with saturating PE (3 µM) at 37 °C, then dilution in buffer with 2.5 mM p-NPP) was “almost completely”. The Akt phosphorylation level [5] was “significant increase” and the IR phosphorylation level [5] was “significant increase”.

Source: PMC8540617, “Dual Targeting of PTP1B and Aldose Reductase with Marine Drug Phosphoeleganin: A Promising Strategy for Treatment of Type 2 Diabetes” (Marine Drugs, 2021)
